Series [1] has as its target T1, Estrogen receptor beta (Homo sapiens, UniProt Q92731).
The target of series [2] is T2, Estrogen receptor (Homo sapiens, UniProt P03372).
T2 sequence (P03372 whole entry): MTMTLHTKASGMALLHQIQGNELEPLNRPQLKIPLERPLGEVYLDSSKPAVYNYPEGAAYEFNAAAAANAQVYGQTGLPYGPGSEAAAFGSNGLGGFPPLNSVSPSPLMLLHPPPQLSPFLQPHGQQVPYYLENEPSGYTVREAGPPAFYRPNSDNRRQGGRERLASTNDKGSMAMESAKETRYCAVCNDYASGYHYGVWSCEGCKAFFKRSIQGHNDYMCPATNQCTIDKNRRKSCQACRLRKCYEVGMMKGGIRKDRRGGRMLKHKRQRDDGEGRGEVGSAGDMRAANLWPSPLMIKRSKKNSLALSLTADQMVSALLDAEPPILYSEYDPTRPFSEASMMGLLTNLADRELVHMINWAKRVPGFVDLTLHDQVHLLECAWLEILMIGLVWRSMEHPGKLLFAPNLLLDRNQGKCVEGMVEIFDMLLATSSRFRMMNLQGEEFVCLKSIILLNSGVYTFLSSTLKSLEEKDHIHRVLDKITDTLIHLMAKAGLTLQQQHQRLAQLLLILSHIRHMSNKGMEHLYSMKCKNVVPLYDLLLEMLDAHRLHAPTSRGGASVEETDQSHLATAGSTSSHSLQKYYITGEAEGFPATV
Description: Binding affinity to human ER alpha

In series [3] the target is T1, Estrogen receptor beta. Description: Binding affinity to human ER beta upto 10 uM.
The target of series [4] is Estrogen receptor (Homo sapiens, UniProt P03372, G521R/L384M/M421G).
Sequence of Estrogen receptor (Homo sapiens, UniProt P03372, G521R/L384M/M421G) (P03372 whole entry L384M/M421G/G521R): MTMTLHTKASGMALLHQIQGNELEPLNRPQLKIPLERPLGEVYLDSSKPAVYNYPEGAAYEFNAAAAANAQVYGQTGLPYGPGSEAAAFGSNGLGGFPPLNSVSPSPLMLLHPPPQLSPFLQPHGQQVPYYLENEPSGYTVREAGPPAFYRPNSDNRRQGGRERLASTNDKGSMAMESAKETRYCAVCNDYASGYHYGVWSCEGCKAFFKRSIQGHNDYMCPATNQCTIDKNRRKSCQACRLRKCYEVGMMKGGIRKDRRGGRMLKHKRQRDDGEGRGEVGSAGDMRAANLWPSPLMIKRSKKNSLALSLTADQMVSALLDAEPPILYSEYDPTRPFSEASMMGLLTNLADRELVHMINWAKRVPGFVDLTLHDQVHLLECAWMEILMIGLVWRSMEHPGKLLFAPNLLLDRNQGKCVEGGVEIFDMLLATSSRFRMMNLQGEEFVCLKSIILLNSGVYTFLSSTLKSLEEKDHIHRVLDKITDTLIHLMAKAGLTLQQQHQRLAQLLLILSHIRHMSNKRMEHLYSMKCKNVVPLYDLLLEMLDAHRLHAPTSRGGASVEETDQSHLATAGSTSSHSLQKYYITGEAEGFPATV
Series [5] in a line: Clearance in rat at 3 mg/kg, iv. As to conditions: in vivo. Further details: dose 3 mg/kg, route intravenous. The series is classed as ADME, organism-based.
Series [6] can be described thus: Terminal half life in rat at 3 mg/kg, iv. The series is classed as ADME, organism-based. Further details: dose 3 mg/kg, route intravenous. As to conditions: in vivo, read-out: beta t1/2 (converted).
The target of series [7] is T3, Estrogen receptor (Homo sapiens) (UniProt P03372).
T3 sequence (whole entry): T2 sequence (P03372 whole entry)
The series is classed as functional, cell-based. As to conditions: HeLa.

Series [8] deals with T2, Estrogen receptor. Description: Binding affinity to wild type ERalpha.
Series [9] can be described thus: Cmax in BALB/c mouse at 4 mg/kg, ip. Also on record: dose 4 mg/kg, route intraperitoneal. As to conditions: in vivo. The series is classed as ADME, organism-based.

The source made the active and inactive calls. No cut-off for these calls is given here.

T1 sequence (Q92731 whole entry): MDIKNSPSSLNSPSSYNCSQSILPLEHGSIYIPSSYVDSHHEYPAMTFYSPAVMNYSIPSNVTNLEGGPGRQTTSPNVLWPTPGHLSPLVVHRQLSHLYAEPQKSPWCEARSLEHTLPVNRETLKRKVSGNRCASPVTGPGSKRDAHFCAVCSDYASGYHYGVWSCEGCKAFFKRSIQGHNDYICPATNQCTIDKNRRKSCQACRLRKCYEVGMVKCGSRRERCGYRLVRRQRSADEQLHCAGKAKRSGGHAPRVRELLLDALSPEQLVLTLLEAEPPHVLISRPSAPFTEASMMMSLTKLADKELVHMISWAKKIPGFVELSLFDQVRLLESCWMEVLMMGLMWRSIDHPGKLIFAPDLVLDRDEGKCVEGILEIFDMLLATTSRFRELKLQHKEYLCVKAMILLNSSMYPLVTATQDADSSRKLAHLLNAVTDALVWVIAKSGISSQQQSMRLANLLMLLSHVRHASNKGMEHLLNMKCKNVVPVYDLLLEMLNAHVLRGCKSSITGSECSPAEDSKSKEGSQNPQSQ

One may read the IC50 as the concentration that inhibits the measured activity by half. A higher IC50 goes with weaker potency in that assay. `CC1=C2c3ccc4nn[nH]c4c3CC2(Cc2ccc(F)cc2)CCC1=O` (configuration not stated) showed an IC50 against Estrogen receptor beta [1] greater than 10000 nM.
In the case of `O=C1CCC2(Cc3ccccc3)Cc3cc(O)ccc3C2=C1c1ccc(OCCN2CCOCC2)cc1` (configuration not stated), the IC50 on Estrogen receptor beta [1] came to 230 nM; at Estrogen receptor [2], 710 nM.
As for `CC1=C2c3ccc4nn[nH]c4c3CC2(Cc2ccccc2)CCC1=O` (configuration not stated), the IC50 is 5800 nM on Estrogen receptor beta [1] and greater than 10000 nM against Estrogen receptor [2].
As to `CC1=C2c3ccc4[nH]nnc4c3CC2(Cc2ccc(F)cc2)CCC1=O` (configuration not stated), the result at Estrogen receptor beta [3] was inactive.
As usually defined, the EC50 is the concentration that produces a half-maximal response. Low values mean an effect from little substance, high ones a need for much substance. As for `O=C1CCC2(Cc3ccccc3)Cc3c(ccc4[nH]ncc34)C2=C1c1ccc(OCCN2CCCCC2)cc1` (configuration not stated), the IC50 at Estrogen receptor beta [1] is 130 nM; on Estrogen receptor [2], 620 nM. Further, at Estrogen receptor [4], the EC50 worked out at 300 nM.
At Estrogen receptor beta [1], `CC1=C2c3ccc4[nH]ncc4c3CC2(Cc2ccc(F)cc2)CCC1=O` (configuration not stated) displayed an IC50 greater than 1000 nM.
In the case of `CC1=C2c3ccc4[nH]ncc4c3CC2(Cc2cccc(F)c2)CCC1=O` (configuration not stated), the IC50 at Estrogen receptor beta [1] was 1600 nM; against Estrogen receptor [2], greater than 10000 nM.
As usually defined, the clearance is a measure of how efficiently the substance is removed, as volume per time. A higher clearance goes with efficient removal. Regarding `O=C1CCC2(Cc3ccccc3)Cc3cc(O)ccc3C2=C1c1ccc(O)cc1` (configuration not stated), the clearance in series [5] is 39 mL/min/kg. The IC50 against Estrogen receptor beta [1] stood at 100 nM; at Estrogen receptor [2] it was 220 nM. Besides, in series [6], the half-life was 1.5 h. In addition, the EC50 at Estrogen receptor [4] is 11 nM.
In the case of `CC1=C2c3ccc4[nH]ncc4c3CC2(Cc2ccccc2)CCC1=O` (configuration not stated), the IC50 was 1200 nM at Estrogen receptor beta [1] and greater than 10000 nM at Estrogen receptor [2]. Moreover, the result in series [7] was inactive.
On to `O=C1CCC2(Cc3ccccc3)Cc3cc(O)ccc3C2=C1c1ccc(OCCN2CCCCC2)cc1` (configuration not stated), for which the clearance in series [5] was 22 mL/min/kg. The IC50 against Estrogen receptor beta [1] turned out to be 180 nM; against Estrogen receptor [2], 380 nM. For the same compound, in series [6], the half-life is 2 h. The same compound returned an EC50 on Estrogen receptor [4] of 14 nM.
In turn, `CC1=C2c3ccc(O)cc3CC2(Cc2ccc(Cl)cc2)CCC1=O` (configuration not stated) returned an IC50 on Estrogen receptor [8] of 6800 nM.
For `CN(C)CCOc1ccc(C2=C3c4ccc(O)cc4CC3(Cc3ccccc3)CCC2=O)cc1` (configuration not stated), the IC50 was 560 nM against Estrogen receptor beta [1] and 1200 nM on Estrogen receptor [2].
On to `O=C1C=C2c3ccc4[nH]ncc4c3CC2(Cc2ccccc2)CC1` (configuration not stated), for which the IC50 against Estrogen receptor beta [1] and against Estrogen receptor [2] was greater than 10000 nM each time.
Consider `CC1=C2c3ccc(O)cc3CC2(Cc2ccccc2)CCC1=O` (configuration not stated), for which the IC50 against Estrogen receptor [2] was 1500 nM.
A word on the Cmax: it is the peak of the concentration-time curve. As for `O=C1CCC2(Cc3ccc(Cl)cc3)Cc3cc(O)ccc3C2=C1c1ccc(OCCN2CCCCC2)cc1` (configuration not stated), the IC50 on Estrogen receptor beta [1] came to 2200 nM; on Estrogen receptor [2], 1100 nM. The compound further yielded a Cmax in series [9] of 500 nM. On Estrogen receptor [4], this compound yielded an EC50 of 41 nM.
On to `CC1=C2c3ccc4[nH]ncc4c3CC2(Cc2ccccc2F)CCC1=O` (configuration not stated), for which the IC50 against Estrogen receptor beta [1] was 560 nM; against Estrogen receptor [2] it was 3400 nM.

The record behind these values is ChEMBL document CHEMBL1149487, “A structure-guided approach to an orthogonal estrogen-receptor-based gene switch activated by ligands suitable for in vivo studies” (J Med Chem, 2006).
